This passage reports mass density and refractive index results from the NIST ThermoML archive (doi:10.1016/j.jct.2017.02.023).

The conditions of data set [1]: 81.5 kPa, Liquid, Vibrating tube method.
A short description of data set [2]: refractive index (Na D-line) (dimensionless). The conditions noted are these: 81.5 kPa, Liquid, Standard Abbe refractometry.
A short description of data set [3]: xn = mol fraction of the nth substance listed. The conditions noted are these: 81.5 kPa, Liquid, Vibrating tube method, x1 = 1.
Data set [4] is described as follows: refractive index (Na D-line) (dimensionless); xn = mol fraction of the nth substance listed. The conditions noted are these: 81.5 kPa, Liquid, Standard Abbe refractometry, x1 = 1.

Each structure is given as a SMILES string. ± gives the expanded uncertainty stated by the source.

Take `CCCCCC(C)O` (centres undefined) [2-heptanol]: the mass density in data set [1] (298.15 K) was 813.36 ± 1.6 kg/m3; in data set [1] (308.15 K), 805.72 ± 1.6 kg/m3; in data set [1] (318.15 K) it was 797.65 ± 1.6 kg/m3; in data set [1] (328.15 K), 789.38 ± 1.6 kg/m3. Also, the refractive index was found to be 1.41924 ± 0.0016 in data set [2] (298.15 K), 1.41505 ± 0.0016 in data set [2] (308.15 K), 1.41076 ± 0.0016 in data set [2] (318.15 K) and 1.40647 ± 0.0016 in data set [2] (328.15 K).

As to `CCCCCC(C)O` (centres undefined) [2-heptanol] + CNC1CCCCC1, the mass density was determined as 813.36 ± 1.6 kg/m3 in data set [3] (298.15 K), 805.72 ± 1.6 kg/m3 in data set [3] (308.15 K), 797.65 ± 1.6 kg/m3 in data set [3] (318.15 K) and 789.38 ± 1.6 kg/m3 in data set [3] (328.15 K). Further, the refractive index in data set [4] (298.15 K) is 1.41924 ± 0.0016; in data set [4] (308.15 K) it was 1.41505 ± 0.0016; in data set [4] (318.15 K), 1.41076 ± 0.0016; in data set [4] (328.15 K), 1.40647 ± 0.0016.

`CCCCC(C)O` (centres undefined) [2-hexanol]: the mass density turned out to be 810.17 ± 1.6 kg/m3 in data set [1] (298.15 K), 801.94 ± 1.6 kg/m3 in data set [1] (308.15 K), 793.57 ± 1.6 kg/m3 in data set [1] (318.15 K) and 784.6 ± 1.6 kg/m3 in data set [1] (328.15 K). Further, the refractive index in data set [2] (298.15 K) is 1.41296 ± 0.0016; in data set [2] (308.15 K) it was 1.40853 ± 0.0016; in data set [2] (318.15 K) it was 1.40413 ± 0.0016; in data set [2] (328.15 K), 1.3996 ± 0.0016.

In the case of `CCCCC(C)O` (centres undefined) [2-hexanol] + CNC1CCCCC1, the mass density was found to be 810.17 ± 1.6 kg/m3 in data set [3] (298.15 K), 801.94 ± 1.6 kg/m3 in data set [3] (308.15 K), 793.57 ± 1.6 kg/m3 in data set [3] (318.15 K) and 784.6 ± 1.6 kg/m3 in data set [3] (328.15 K). Besides, the refractive index in data set [4] (298.15 K) is 1.41296 ± 0.0016; in data set [4] (308.15 K), 1.40853 ± 0.0016; in data set [4] (318.15 K), 1.40413 ± 0.0016; in data set [4] (328.15 K), 1.3996 ± 0.0016.

For `CCCCCCC(C)O` (centres undefined) [2-octanol], the mass density in data set [1] (298.15 K) is on record as 817.05 ± 1.6 kg/m3; in data set [1] (308.15 K), 809.43 ± 1.6 kg/m3; in data set [1] (318.15 K), 801.32 ± 1.6 kg/m3; in data set [1] (328.15 K), 793.06 ± 1.6 kg/m3. The refractive index in data set [2] (298.15 K) turned out to be 1.42483 ± 0.0016; in data set [2] (308.15 K) it was 1.42073 ± 0.0016; in data set [2] (318.15 K) it was 1.41648 ± 0.0016; in data set [2] (328.15 K), 1.41224 ± 0.0016.

Turning to `CCCCCCC(C)O` (centres undefined) [2-octanol] + CNC1CCCCC1, the mass density in data set [3] (298.15 K) worked out at 817.05 ± 1.6 kg/m3; in data set [3] (308.15 K) it was 809.43 ± 1.6 kg/m3; in data set [3] (318.15 K), 801.32 ± 1.6 kg/m3; in data set [3] (328.15 K), 793.06 ± 1.6 kg/m3. For the same compound, the refractive index in data set [4] (298.15 K) was 1.42483 ± 0.0016; in data set [4] (308.15 K), 1.42073 ± 0.0016; in data set [4] (318.15 K) it was 1.41648 ± 0.0016; in data set [4] (328.15 K) it was 1.41224 ± 0.0016.

On to `CNC1CCCCC1` [N-methylcyclohexylamine], for which the mass density was 865.2 ± 1.6 kg/m3 in data set [1] (298.15 K), 856.57 ± 1.6 kg/m3 in data set [1] (308.15 K), 847.67 ± 1.6 kg/m3 in data set [1] (318.15 K) and 838.68 ± 1.6 kg/m3 in data set [1] (328.15 K). Further, the refractive index in data set [2] (298.15 K) is reported as 1.45306 ± 0.0016; in data set [2] (308.15 K), 1.44812 ± 0.0016; in data set [2] (318.15 K) it was 1.4431 ± 0.0016; in data set [2] (328.15 K) it was 1.43809 ± 0.0016.

For the compound `CCC(C)O` (centres undefined) [butan-2-ol], the mass density in data set [1] (298.15 K) was found to be 802.71 ± 1.6 kg/m3; in data set [1] (308.15 K), 794.2 ± 1.6 kg/m3; in data set [1] (318.15 K) it was 785.32 ± 1.6 kg/m3; in data set [1] (328.15 K) it was 775.52 ± 1.6 kg/m3. Also, the refractive index in data set [2] (298.15 K) is on record as 1.39544 ± 0.0016; in data set [2] (308.15 K) it was 1.39105 ± 0.0016; in data set [2] (318.15 K), 1.38646 ± 0.0016; in data set [2] (328.15 K), 1.38175 ± 0.0016.

Consider `CCC(C)O` (centres undefined) [butan-2-ol] + CNC1CCCCC1, for which the mass density in data set [3] (298.15 K) was 802.71 ± 1.6 kg/m3; in data set [3] (308.15 K) it was 794.2 ± 1.6 kg/m3; in data set [3] (318.15 K), 785.32 ± 1.6 kg/m3; in data set [3] (328.15 K), 775.52 ± 1.6 kg/m3. Moreover, the refractive index was determined as 1.39544 ± 0.0016 in data set [4] (298.15 K), 1.39105 ± 0.0016 in data set [4] (308.15 K), 1.38646 ± 0.0016 in data set [4] (318.15 K) and 1.38175 ± 0.0016 in data set [4] (328.15 K).

As to `CCCC(C)O` (centres undefined) [pentan-2-ol], the mass density came to 805.37 ± 1.6 kg/m3 in data set [1] (298.15 K), 796.95 ± 1.6 kg/m3 in data set [1] (308.15 K), 788.38 ± 1.6 kg/m3 in data set [1] (318.15 K) and 779.17 ± 1.6 kg/m3 in data set [1] (328.15 K). Also, the refractive index came to 1.4045 ± 0.0016 in data set [2] (298.15 K), 1.40029 ± 0.0016 in data set [2] (308.15 K), 1.39586 ± 0.0016 in data set [2] (318.15 K) and 1.39126 ± 0.0016 in data set [2] (328.15 K).

For the compound `CCCC(C)O` (centres undefined) [pentan-2-ol] + CNC1CCCCC1, the mass density in data set [3] (298.15 K) is on record as 805.37 ± 1.6 kg/m3; in data set [3] (308.15 K), 796.95 ± 1.6 kg/m3; in data set [3] (318.15 K) it was 788.38 ± 1.6 kg/m3; in data set [3] (328.15 K), 779.17 ± 1.6 kg/m3. Besides, the refractive index came to 1.4045 ± 0.0016 in data set [4] (298.15 K), 1.40029 ± 0.0016 in data set [4] (308.15 K), 1.39586 ± 0.0016 in data set [4] (318.15 K) and 1.39126 ± 0.0016 in data set [4] (328.15 K).

Regarding `CC(C)O` [propan-2-ol], the mass density in data set [1] (298.15 K) amounted to 781.05 ± 1.6 kg/m3; in data set [1] (308.15 K), 772.41 ± 1.6 kg/m3; in data set [1] (318.15 K), 763.41 ± 1.6 kg/m3; in data set [1] (328.15 K) it was 753.12 ± 1.6 kg/m3. The refractive index in data set [2] (298.15 K) is reported as 1.37511 ± 0.0016; in data set [2] (308.15 K), 1.37097 ± 0.0016; in data set [2] (318.15 K), 1.36665 ± 0.0016; in data set [2] (328.15 K) it was 1.36181 ± 0.0016.

For the compound `CC(C)O` [propan-2-ol] + CNC1CCCCC1, the mass density in data set [3] (298.15 K) is recorded as 781.05 ± 1.6 kg/m3; in data set [3] (308.15 K) it was 772.41 ± 1.6 kg/m3; in data set [3] (318.15 K), 763.41 ± 1.6 kg/m3; in data set [3] (328.15 K), 753.12 ± 1.6 kg/m3. Also, the refractive index in data set [4] (298.15 K) is listed as 1.37511 ± 0.0016; in data set [4] (308.15 K) it was 1.37097 ± 0.0016; in data set [4] (318.15 K), 1.36665 ± 0.0016; in data set [4] (328.15 K), 1.36181 ± 0.0016.

Usually mass density stands for the mass of a sample divided by its volume. In general, refractive index refers to a measure of how strongly the sample bends light.
